PubChem BioAssay (NCI)
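Cells were grown in 96-well plates and exposed to each compound for 48 hours at five concentrations; endpoints were interpolated linearly between bracketing concentrations, or set to the highest concentration if not reached. The concentration for full growth arrest is given as TGI.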

Tests used:
Assay in all cases: NCI tumour cell line growth inhibition, 48 h
NCI-H460 lung = tested on: NCI-H460 lung
OVCAR-3 ovarian = tested on: OVCAR-3 ovarian
NCI-H522 lung = tested on: NCI-H522 lung
UACC-62 melanoma = tested on: UACC-62 melanoma
TK-10 renal = tested on: TK-10 renal
MOLT-4 leukemia = tested on: MOLT-4 leukemia
HT29 colon = tested on: HT29 colon
SW-620 colon = tested on: SW-620 colon
DU-145 prostate = tested on: DU-145 prostate
OVCAR-8 ovarian = tested on: OVCAR-8 ovarian

Compound	TGI (NCI-H460 lung) [µM]	TGI (OVCAR-3 ovarian) [µM]	TGI (NCI-H522 lung) [µM]	TGI (UACC-62 melanoma) [µM]	TGI (TK-10 renal) [µM]	TGI (MOLT-4 leukemia) [µM]	TGI (HT29 colon) [µM]	TGI (SW-620 colon) [µM]	TGI (DU-145 prostate) [µM]	TGI (OVCAR-8 ovarian) [µM]
NC1=CC(=O)c2c(O)ccc(O)c2C1=O	25.2	8.45	18	26.5	> 84.8	> 34.9	19.8	15.2	32.1	33
O=C(/C=C/c1ccc(O)c(O)c1)OCCc1ccc2ccccc2c1	23.7	12.4	8.35	13.9	20.4	11.3	25.6	20.7	24.3	26.6
CN(CCN1CCCC1)C1CCc2cc(Cl)c(Cl)cc2C1 (stereo not given)	31.5	32.1	33	19.4	30.9	> 100	22.8	89	26	30.8
O=C(CCc1cc(O)cc(O)c1)NCCc1cc(OCc2ccccc2)cc(OCc2ccccc2)c1	14.4	52.2	28.2	40.2	46.2	22.7	41.9	53.3	33.5	50.6
Cc1ccc(-c2cc(-c3ccco3)c(C#N)c(=S)[nH]2)cc1	> 100	> 100	> 100	> 100	> 100	> 100	> 100	> 100	> 100	> 100
Cc1c(C)n(-c2ccccc2)c2nc(S(C)=O)nc(S(C)=O)c12 (stereo not given)	43.4	6.77	4.59	20.1	7.36	5.57	25.1	3.86	27.5	12.4
c1ccc(C2=NC3OC2c2ccccc23)cc1 (stereo not given)	> 10	> 10	> 10	> 10	> 10	> 10	> 10	> 10	> 10	> 10
COC(=O)c1ccccc1C1CN=NC12Cc1c(ccc(C)c1C)C2=O (stereo not given)	> 100	> 100	> 100	> 100	> 100	> 100	> 100	> 100	> 100	> 100
COc1ccc(C)cc1N1C(=O)C2ON(Cc3ccc(CC(N)=O)cc3)C(c3c4ccccc4c(Cl)c4ccccc34)C2C1=O (stereo not given)	36.6	> 100	> 100	45.2	49.5	> 100	40.9	> 100	86.5	84.6
COc1ccc2c(c1)c1c(n2CCN2CCCCC2)-c2cccc(OC)c2CC1	55.9	34.5	18.8	32.9	32.8	48	17.6	42.5	> 100	32.3
CCCCCCN(CCCCCC)C(=S)N/N=C(\C)c1ccccn1	2.97	2.83	2.7	3.5	2.5	5.79	4.29	4.77	2.59	3.38
CC(=O)O[C@@H](c1nccn1Cc1ccccc1)[C@H]1OC(C)(C)O[C@@H]1[C@H]1COC(C)(C)O1	> 100	> 100	> 100	> 100	> 100	> 100	> 100	> 100	> 100	> 100
CC1CC(N2CCOCC2)=Nc2ccccc2N1C (stereo not given)	> 100	> 100	> 100	> 100	> 100	> 100	> 100	> 100	> 100	> 100
O=C(COc1ccc(OCC(=O)N/N=C/c2ccc(-c3ccc(Cl)cc3Cl)o2)c(Cl)c1)N/N=C/c1ccc(-c2ccc(Cl)cc2Cl)o1	> 100	> 100	> 100	> 100	> 100	5.5	> 100	> 100	> 100	> 100
Cn1c2ccccc2n2c3ncccc3c(=O)c(C#N)c12	> 40.7	> 100	35.4	28.4	> 100	> 100	> 100	> 100	24.7	23.5
COc1ccc(N=Nc2c(-c3c(OC)cc4occc4c3OC)[nH]c(=O)c(C#N)c2C)cc1	> 100	> 100	> 100	> 100	> 100	> 100	> 100	> 100	> 100	> 100
O=c1oc2ccc3ccccc3c2cc1-c1cn2ccsc2n1	> 100	43.8	36.8	34.2	33.9	14.9	37.8	46.8	47.3	41.2
